This note sets out measurements from patent US10220051B2, “Combination of DNA repair inhibition with bendamustine or gemcitabine in the treatment of cancer” (Institute for Cancer Research, priority 2012, dated 2019).

Entries after “also recorded” stand apart in the source; their conditions may differ.

In experiment [1] the test system is Hela cells. Nature of the experiment: Cell viability MTS assay, Hela. It counts as cell-based. On the procedure:
(§1) Cell viability and apoptosis assays. Hela cells were seeded into 96 well plates at a density of 1500 cells per well. Cells were treated with BDM (3.125-200 μM) for 24 h. After this time cells were additionally treated either with UCN-01 (100 nM), Chk2 inhibitor (100 nM) or Gö6976 (200 nM) for an additional 24 h. MTS reagent (CellTiter 96® AQueous Proliferation Assay, Promega) was added to each well for 4 h before the absorbance values at 490 nm was read. Experiments were conducted in triplicate, 3 independent times. Data presented are the average absorbance values, relative to control±SD. For apoptosis determination, cells seeded and treated as stated above were stained with Guava Nexin Reagent® (Millipore). Analysis was conducted using the Easycyte module and Cytosoft Software® (Millipore). Experiments were conducted 3 independent times, collecting 2000 events each time. Data shown is the average±SD.
(Formazan colour is commonly taken as a measure of viable cells.)

The test system of experiment [2] is Hela cells. In words: Apoptosis assay (Guava Nexin Reagent). It counts as cell-based. Particulars: BDM 200 μM followed by Chk1 inhibitor; p<0.01 vs. control. The method, then:
as §1

Experiment [3] relates to Hela cells stably expressing GFP:histone H2B. Nature of the experiment: Time-lapse video microscopy of mitosis. It counts as cell-based. On the procedure:
Time-lapse video microscopy. Hela cells stably expressing GFP:histone H2B were seeded into 6 well plates and synchronized in S phase using thymidine (2 mM). […] Where appropriate, UCN-01 (100 nM) was added to wells before being supplemented with HEPES (25 mM), layered with mineral oil (Sigma) and placed into a housing chamber which maintained the temperature at 37° C. Using a Nikon TE2000 microscope (Nikon) controlled by MetaMorph software (Molecular Devices), brightfield and fluorescent images were captured every 5 minutes for up to 48 h. Individual movies were analyzed manually and a minimum of 100 cells per treatment scored for the indicated measurements. For montages, selected frames representing different cell morphologies are presented.

Experiment [4] has as its system Hela cells. In words: Metaphase spreads. It counts as cell-based. On the procedure: Metaphase spreads. Mitotic cells were collected from untreated and bendamustine at 50 μM or 200 μM+UCN-01 (100 nM) treatments. For visualizing, cells were dropped onto a glass slides and stained with DAPI. Mitotic spreads were viewed and imaged using fluorescence microscopy. Images shown are representative of those observed.

Experiment [5] has as its system Hela cells. In words: Electron microscopy of mitotic chromosomes. It counts as cell-based. On the procedure:
Electron microscopy. Hela cells were seeded into 6 cm dishes, synchronized with thymidine (2 mM) and treated with BDM 50 μM, 200 μM or gemcitabine (100 μM) for 18 h. Cells treated with UCN-01 (100 μM) for an addition 9 h to obtain mitotic cells were fixed with glutaraldehyde solution (3%, pH 7.4). Samples were prepared for electron microscopy analysis.

Experiment [6] deals with SK28 cells. In words: SK28 cell viability (MTS assay). It counts as cell-based. The conditions noted are these: SK28, concentration-dependent, quadruplicate. On the procedure: (§2) Tests were conducted in quadruplicate.
Experiment [7] has as its system SK28 cells. In words: SK28 clonogenic assay. The conditions noted are these: SK28, concentration-dependent, quadruplicate. It counts as cell-based. The method, then:
as §2

In experiment [8] the test system is BxPC3 cells. Nature of the experiment: MTS assay, TDG inhibitor combinations, BxPC3. The conditions noted are these: 10 μM juglone + increasing BDM, 72 and 96 hours. It counts as cell-based. On the procedure:
(§3) Two TDG inhibitors, juglone and closantel, were tested for their ability to kill two PaC cell lines, BxPC3 and Panc1 cells, in MTS assays. Cells were treated for 72 and 96 hours with 10 μM juglone and 20 μM closantel, in combination with increasing concentrations of BDM.

A further experiment deals with MCF7 breast cancer cells. Nature of the experiment: Killing by juglone combinations, MCF7. It counts as cell-based.
In experiment [9] the test system is HCT116 colon cancer cells. In words: Killing by juglone combinations, HCT116. It counts as cell-based. The method, then: [The source words this procedure for another cell line and reports this cell line under the same test.] as §3
The next experiment relates to SK28 melanoma cells. In words: Killing by juglone combinations, SK28. It counts as cell-based.
In experiment [10] the test system is BxPC3 cells. Nature of the experiment: xCelligence proliferation assay, BxPC3. The conditions noted are these: increasing juglone + 45 μM BDM, 24 hours. It counts as cell-based. On the procedure: To independently verify the MTS and clonogenic assays described in the preceding Examples, an assay was conducted using a xCelligence real-time cell analyzer (ACEA Biosciences, Inc.), using a label-free, non-invasive method to monitor adherent cell behavior, including proliferation, spreading and compound-mediated cytotoxicity. The system is based on detecting impedance differences within an electrical circuit created in microelectrodes at the base of culture wells; these differences are converted into a cell index (CI), a value that is influenced by a variety of factors, such as cell number, cell size and cell adhesion. The effect of the TDG inhibitor juglone, in combination with bendamustine (BDM) and gemcitabine (GCB), was assessed on the growth of various cancer cells. BxPC3 cells were treated with 45 μM BDM, in combination with increasing concentrations of juglone, and proliferation was followed over 24 hours.

For experiment [11], the system named is MCF7 breast cancer cell lines. In words: xCelligence proliferation assay, MCF7. It counts as cell-based. The conditions noted are these: juglone + BDM.
Experiment [12] concerns TDG wild type mouse embryo fibroblast lines (MEFs). In words: Cell cycle FACS after gemcitabine, wild type MEFs. It counts as cell-based. Particulars: 50 nM gemcitabine, 48 hours. On the procedure:
(§4) DNA content analysis via flow cytometry. Following indicated drug treatments, cells were fixed with 70% ethanol. For analysis, cells were stained with propidium iodide, RNase A and sodium citrate. Cells were incubated at 37° C. for 30 minutes before being analyzed using a Becton Dickinson single laser three-fluorescence FACScan flow analyzer and Cell Quest software (Becton Dickinson). DNA content was acquired from 10,000 events and FlowJo software was used to process the data.
(§5) Isogenic, littermate-derived, thymine DNA glycosylase (TDG) wild type and knock-out mouse embryo fibroblast lines (MEFs) were treated with a sub-lethal dose of 50 nM gemcitabine for 48 hours. At the end of the treatment, cells were collected, stained with propidium iodide and analyzed by flow cytometry.

Experiment [13] deals with TDG knock-out mouse embryo fibroblast lines (MEFs). Nature of the experiment: Cell cycle FACS after gemcitabine, TDG knock-out MEFs. It counts as cell-based. The conditions noted are these: 50 nM gemcitabine, 48 hours. The method, then: as §4, §5
The test system of experiment [14] is TDG knock-out MEFs transduced with wild type human TDG cDNA. Nature of the experiment: Cell cycle FACS after gemcitabine, knock-out MEFs with wild type hTDG. It counts as cell-based, mouse. The conditions noted are these: knockout MEFs reconstituted with wild type TDG. The method, then: (§6) The biologic function of TDG includes a non-enzymatic role as transcriptional co-activator, mediated by protein-protein interactions, and an enzymatic role related to its DNA N-glycosylase activity. To determine whether sensitization to gemcitabine was due to inactivation of TDG enzymatic function, TDG knock-out MEFs transduced with wild type or glycosylase-dead human TDG cDNA were evaluated.

For experiment [15], the system named is TDG knock-out MEFs transduced with glycosylase-dead human TDG cDNA. In words: Cell cycle FACS after gemcitabine, knock-out MEFs with glycosylase-dead hTDG. It counts as cell-based, mouse. The conditions noted are these: versus knock-out cells transduced with wild type human TDG cDNA. The method, then:
as §6

Experiment [16] has as its system BxPC3 pancreatic cancer cells. In words: Clonogenic assay, BxPC3 with or without TDG knockdown. It counts as cell-based. The conditions noted are these: TDG knockdown (C8) versus pLKO-infected BxPC3. The method, then: Clonogenic assays were conducted on pancreatic cancer (PaC) cell line BxPC3 infected with empty pLKO vector or with the C8 lentivirus that downregulates TDG. Even in the absence of gemcitabine, colony formation by the TDG knockdown cells was reduced nearly 60% (FIG. 13). In FIG. 10, the maximum number of colonies formed by pLKO-infected BxPC3 cells was set as 100%.

Where [17] appears, read: 50 μM BDM 24 h, then UCN-01 100 nM.

For the molecule `CN[C@@H]1C[C@H]2O[C@@](C)([C@@H]1OC)n1c3ccccc3c3c4c(c5c6ccccc6n2c5c31)C(=O)N[C@@H]4O` [UCN-01], the “sensitization to killing by BDM (viability)” value with Hela cells [1] (200 μM BDM 24 h, then Chk1 inhibitor 24 h) is recorded as “viability was significantly reduced”. In addition, the “sensitization to killing by BDM” value with Hela cells [1] (BDM up to 100 μM 24 h, then UCN-01 100 nM 24 h) is “did not sensitize”. Also, in the experiment with Hela cells [1] (UCN-01 alone, any of the assays performed), the “cell viability, UCN-01 alone” value was “no discernable effects on cell viability”. The “percentage of apoptotic cells” value in the experiment with Hela cells [2] is on record as “exhibited an increase in the percentage of apoptotic cells”. In addition, in experiment [3] (setting [17]), the “effect on BDM-induced arrest” value is on record as “abrogated the arrest”. Further, in [3] (setting [17]), the “time to start of mitotic entry after UCN-01 addition” value worked out at 4 h. Besides, the “delay at metaphase (average)” value in experiment [3] (50 μM BDM + UCN-01, controls 37.5±16.7 minutes) came out at 89 ± 64.7 min. The “chromosome morphology in metaphase spreads” value is “no obvious gross structural defects” in the experiment on Hela cells [4] (BDM 50 μM + UCN-01) and “extremely abnormal” in the experiment with Hela cells [4] (BDM 200 μM + UCN-01). Besides, the “chromosome ultra-structure (electron microscopy)” value with Hela cells [5] (BDM 50 μM + UCN-01) was “intact chromosomes were clearly visualized”; in the experiment on Hela cells [5] (BDM 200 μM + UCN-01) it was “highly fragmented”.
`O=C1C=CC(=O)c2c(O)cccc21` [juglone, 5-hydroxynaphthoquinone]: the cell viability result is reported as “reduction of SK28 cell viability” in the experiment on SK28 cells [6] and “reduce cell viability” with SK28 cells [6] (listed as Juglone). Besides, the “clonogenic capacity / colony-forming ability” value is “reduction of SK28 cell viability (MTS assay) and colony-forming ability; also recorded: reduction of clonogenic capacity” in the experiment with SK28 cells [7]; “reduce cell viability and clonogenic capacity” with SK28 cells [7] (listed as Juglone). Also, the “killing effect in combination with BDM” value with BxPC3 cells [8] is listed as “synergistic killing effect”; in the experiment on MCF7 breast cancer cells (juglone + BDM), “synergistic effect”. In the experiment on MCF7 breast cancer cells (juglone + gemcitabine), the “killing effect in combination with gemcitabine” value is reported as “synergistic killing”. For the same molecule, the “killing in combination with bendamustine” value (in experiment [9] (juglone + bendamustine); with SK28 melanoma cells (juglone + bendamustine)) was “more effectively killed” each time. For the same molecule, the “killing in combination with gemcitabine” value (in experiment [9] (juglone + gemcitabine); with SK28 melanoma cells (juglone + gemcitabine)) was “more effectively killed” throughout. The “proliferation (normalized cell index)” value with BxPC3 cells [10] is reported as “suppressed proliferation more than juglone alone”; in experiment [11], “A similar result was observed”.
`Nc1ccn([C@@H]2O[C@H](CO)[C@@H](O)C2(F)F)c(=O)n1` [gemcitabine, 2′,2′-difluorodeoxycytidine]: the figures for the “cells in S phase” value in [12] and in [13] were 20.7% and 52.3%, respectively. Also, the “response to gemcitabine (flow cytometry)” value in [14] is “responded the same as wild type MEFs”. In addition, in [15], the “sensitivity to gemcitabine (flow cytometry)” value is recorded as “increased sensitivity”. Also, the “colony formation with increasing gemcitabine” value in experiment [16] is “further reduced, and this reduction was greater than pLKO-infected cells expressing TDG”.
